{"source": "patent US10869904B2", "about": "“Pharmaceutical composition for preventing or treating respiratory disease comprising extract of Justicia procumbens L” (DONG WHA PHARM. CO., LTD., priority 2016, dated 2020)", "assay_type_in_all_cases": "cell-based, Balb/c mice", "key": {"splenocytes": {"tested_on": "splenocytes", "assay": "Inhibition of Concanavalin A-induced splenocyte proliferation (CCK8)", "conditions": "for inhibition of splenocyte proliferation (in words): Tables 4 to 6", "method": "(§1) The isolated splenocytes were diluted in RPMI medium (containing 10% fetal bovine serum (FBS) and antibiotics (100 U/mL penicillin and 100 μg/mL streptomycin)) at a concentration of 5×10^6 cells/nit, and the cell dilution was dispended in a 24-well plate in an amount of 500 μl/well and in a 96-well plate in an amount of 100 μl/well. The plates were incubated in a 5% CO2 incubator at 37° C. for 48 hours. […] The medium of the 24-well plate was used to measure the degree of secretion of Th2 inflammatory cytokines (IL4 and IL5), and the 96-well plate was used to measure the degree of cell proliferation. First, in order to measure Th2 cytokines, the medium in the 24-well plate was collected and centrifuged at 800×g for 5 minutes, and the supernatant was collected. 100 μl of the supernatant per well was used in IL4 or IL5 enzyme-linked immunosorbent assay (ELISA, Komabiotech Inc.) to measure the degree of secretion of these cytokines. In order to measure the degree of cell proliferation, […] of CCK8 (cell counting kit 8, Donjindo) solution was added to each well of the 96-well plate, and after 4 hours, the absorbance value was measured. The degree of inhibition of spleen cell proliferation by each drug and the degree of inhibition of Th2 cytokine secretion by each drug were calculated using Equation 2 below. For drug synergistic effects, a linear equation was constructed using the concentrations of drugs administered alone as x-coordinates and using drug concentration-dependent inhibition as y-coordinates. Using this linear equation, the concentrations of drugs administered alone, which correspond to inhibition achieved when administered in combination, were calculated, and combination index (CI) was calculated using Equation 3 below. A CI value of less than 1 indicates a synergistic effect, a CI value of 1 indicates an additive effect, and a CI value of more than 1 indicates an antagonistic effect (Liang Zhao et. al., Clinical Cancer Research, 10, 7994-8004, 2004). […]"}, "IL4": {"tested_on": "IL4", "assay": "Inhibition of IL4 secretion by Concanavalin A-treated splenocytes (ELISA)", "conditions": "for inhibition of IL4 secretion (in words): text on Tables 7 and 8", "method": "as §1"}, "IL5": {"tested_on": "IL5", "assay": "Inhibition of IL5 secretion by Concanavalin A-treated splenocytes (ELISA)", "conditions": "for inhibition of IL5 secretion (in words): text on Tables 7 and 8", "method": "as §1"}, "[1]": {"conditions": "Table 8, Concentration (mM) 0.25"}, "[2]": {"conditions": "Table 8, Concentration (mM) 0.5"}}, "data": [{"compound": "COc1cc2c(OC)c3c(c(-c4ccc5c(c4)OCO5)c2cc1OC)C(=O)OC3", "note": "[Justicidin A, justicidin A]", "values": [{"measurement": "Inhibition of splenocyte proliferation (%, n = 3, Mean ± SD)", "setting": "splenocytes; Table 5, 0.5 μM", "result": "−2.7 ± 1.84", "unit": "%"}, {"measurement": "Inhibition of splenocyte proliferation (%, n = 3, Mean ± SD)", "setting": "splenocytes; Table 5, 1 μM", "result": "9.4 ± 4.36", "unit": "%"}, {"measurement": "Inhibition of splenocyte proliferation (%, n = 3, Mean ± SD)", "setting": "splenocytes; Table 5, 2.5 μM", "result": "56.4 ± 18.80", "unit": "%"}, {"measurement": "Inhibition of splenocyte proliferation (%, n = 3, Mean ± SD)", "setting": "splenocytes; Table 5, 5 μM", "result": "85.0 ± 2.43", "unit": "%"}, {"measurement": "Inhibition of splenocyte proliferation (%, n = 3, Mean ± SD)", "setting": "splenocytes; Table 6, 1 μM", "result": "43.4 ± 1.63", "unit": "%"}, {"measurement": "Inhibition of splenocyte proliferation (%, n = 3, Mean ± SD)", "setting": "splenocytes; Table 6, 5 μM", "result": "99.0 ± 2.35", "unit": "%"}, {"measurement": "inhibition of splenocyte proliferation (in words)", "setting": "splenocytes", "result": "high inhibitory activities"}, {"measurement": "Inhibition of IL4 secretion (%, n = 2, Mean ± SD)", "setting": "IL4; Table 7, 1 μM", "result": "−10.6 ± 0.08", "unit": "%"}, {"measurement": "Inhibition of IL4 secretion (%, n = 2, Mean ± SD)", "setting": "IL4; Table 7, 5 μM", "result": "54.7 ± 0.02", "unit": "%"}, {"measurement": "Inhibition of IL4 secretion (%, n = 2, Mean ± SD)", "setting": "IL4; Table 8, Concentration (mM) 1", "result": "71.6 ± 0.02", "unit": "%"}, {"measurement": "Inhibition of IL4 secretion (%, n = 2, Mean ± SD)", "setting": "IL4; Table 8, Concentration (mM) 5", "result": "86.4 ± 0.04", "unit": "%"}, {"measurement": "inhibition of IL4 secretion (in words)", "setting": "IL4", "result": "inhibited the secretion of IL4 and IL5"}, {"measurement": "Inhibition of IL5 secretion (%, n = 2, Mean ± SD)", "setting": "IL5; Table 7, 1 μM", "result": "25.4 ± 0.01", "unit": "%"}, {"measurement": "Inhibition of IL5 secretion (%, n = 2, Mean ± SD)", "setting": "IL5; Table 7, 5 μM", "result": "56.7 ± 0.00", "unit": "%"}, {"measurement": "Inhibition of IL5 secretion (%, n = 2, Mean ± SD)", "setting": "IL5; Table 8, Concentration (mM) 1", "result": "11.7 ± 0.27", "unit": "%"}, {"measurement": "Inhibition of IL5 secretion (%, n = 2, Mean ± SD)", "setting": "IL5; Table 8, Concentration (mM) 5", "result": "25.7 ± 0.08", "unit": "%"}, {"measurement": "inhibition of IL5 secretion (in words)", "setting": "IL5", "result": "inhibited the secretion of IL4 and IL5"}]}, {"compound": "phyllamyricin C", "values": [{"measurement": "Inhibition of splenocyte proliferation (%, n = 3, Mean ± SD)", "setting": "splenocytes; Table 5, 0.5 μM", "result": "0.9 ± 2.86", "unit": "%"}, {"measurement": "Inhibition of splenocyte proliferation (%, n = 3, Mean ± SD)", "setting": "splenocytes; Table 5, 5 μM", "result": "18.8 ± 2.82", "unit": "%"}, {"measurement": "Inhibition of splenocyte proliferation (%, n = 3, Mean ± SD)", "setting": "splenocytes; Table 6, 1 μM", "result": "19.0 ± 18.44", "unit": "%"}, {"measurement": "Inhibition of splenocyte proliferation (%, n = 3, Mean ± SD)", "setting": "splenocytes; Table 6, 5 μM", "result": "25.0 ± 11.37", "unit": "%"}, {"measurement": "inhibition of splenocyte proliferation (in words)", "setting": "splenocytes", "result": "exhibited the effect of inhibiting splenocyte proliferation"}, {"measurement": "Inhibition of IL4 secretion (%, n = 2, Mean ± SD)", "setting": "IL4; Table 7, 1 μM", "result": "9.8 ± 0.05", "unit": "%"}, {"measurement": "Inhibition of IL4 secretion (%, n = 2, Mean ± SD)", "setting": "IL4; Table 7, 5 μM", "result": "14.4 ± 0.01", "unit": "%"}, {"measurement": "Inhibition of IL4 secretion (%, n = 2, Mean ± SD)", "setting": "IL4; Table 8, Concentration (mM) 1", "result": "11.8 ± 0.01", "unit": "%"}, {"measurement": "Inhibition of IL4 secretion (%, n = 2, Mean ± SD)", "setting": "IL4; Table 8, Concentration (mM) 5", "result": "51.5 ± 0.11", "unit": "%"}, {"measurement": "inhibition of IL4 secretion (in words)", "setting": "IL4", "result": "inhibited the secretion of IL4 and IL5"}, {"measurement": "Inhibition of IL5 secretion (%, n = 2, Mean ± SD)", "setting": "IL5; Table 7, 1 μM", "result": "22.9 ± 0.01", "unit": "%"}, {"measurement": "Inhibition of IL5 secretion (%, n = 2, Mean ± SD)", "setting": "IL5; Table 7, 5 μM", "result": "67.9 ± 0.01", "unit": "%"}, {"measurement": "Inhibition of IL5 secretion (%, n = 2, Mean ± SD)", "setting": "IL5; Table 8, Concentration (mM) 1", "result": "0.5 ± 0.05", "unit": "%"}, {"measurement": "Inhibition of IL5 secretion (%, n = 2, Mean ± SD)", "setting": "IL5; Table 8, Concentration (mM) 5", "result": "31.6 ± 0.08", "unit": "%"}, {"measurement": "inhibition of IL5 secretion (in words)", "setting": "IL5", "result": "inhibited the secretion of IL4 and IL5"}]}, {"compound": "COc1cc2c(OC)c3c(c(-c4ccc5c(c4)OCO5)c2cc1OC)COC3=O", "note": "[Justicidin C, justicidin C]", "values": [{"measurement": "Inhibition of splenocyte proliferation (%, n = 3, Mean ± SD)", "setting": "splenocytes; Table 5, 0.5 μM", "result": "−3.6 ± 4.00", "unit": "%"}, {"measurement": "Inhibition of splenocyte proliferation (%, n = 3, Mean ± SD)", "setting": "splenocytes; Table 5, 5 μM", "result": "8.4 ± 3.20", "unit": "%"}, {"measurement": "Inhibition of splenocyte proliferation (%, n = 3, Mean ± SD)", "setting": "splenocytes; Table 6, 1 μM", "result": "6.7 ± 15.08", "unit": "%"}, {"measurement": "Inhibition of splenocyte proliferation (%, n = 3, Mean ± SD)", "setting": "splenocytes; Table 6, 5 μM", "result": "31.7 ± 12.81", "unit": "%"}, {"measurement": "inhibition of splenocyte proliferation (in words)", "setting": "splenocytes", "result": "exhibited the effect of inhibiting splenocyte proliferation"}, {"measurement": "Inhibition of IL4 secretion (%, n = 2, Mean ± SD)", "setting": "IL4; Table 7, 1 μM", "result": "−14.1 ± 0.05", "unit": "%"}, {"measurement": "Inhibition of IL4 secretion (%, n = 2, Mean ± SD)", "setting": "IL4; Table 7, 5 μM", "result": "26.1 ± 0.04", "unit": "%"}, {"measurement": "Inhibition of IL4 secretion (%, n = 2, Mean ± SD)", "setting": "IL4; Table 8, Concentration (mM) 1", "result": "25.3 ± 0.15", "unit": "%"}, {"measurement": "Inhibition of IL4 secretion (%, n = 2, Mean ± SD)", "setting": "IL4; Table 8, Concentration (mM) 5", "result": "51.7 ± 0.02", "unit": "%"}, {"measurement": "inhibition of IL4 secretion (in words)", "setting": "IL4", "result": "inhibited the secretion of IL4 and IL5"}, {"measurement": "Inhibition of IL5 secretion (%, n = 2, Mean ± SD)", "setting": "IL5; Table 7, 1 μM", "result": "39.8 ± 0.03", "unit": "%"}, {"measurement": "Inhibition of IL5 secretion (%, n = 2, Mean ± SD)", "setting": "IL5; Table 7, 5 μM", "result": "36.4 ± 0.02", "unit": "%"}, {"measurement": "Inhibition of IL5 secretion (%, n = 2, Mean ± SD)", "setting": "IL5; Table 8, Concentration (mM) 1", "result": "16.9 ± 0.06", "unit": "%"}, {"measurement": "Inhibition of IL5 secretion (%, n = 2, Mean ± SD)", "setting": "IL5; Table 8, Concentration (mM) 5", "result": "26.2 ± 0.00", "unit": "%"}, {"measurement": "inhibition of IL5 secretion (in words)", "setting": "IL5", "result": "inhibited the secretion of IL4 and IL5"}]}, {"compound": "COc1cc2cc3c(c(-c4ccc5c(c4)OCO5)c2cc1OC)C(=O)OC3", "note": "[Justicidin B, justicidin B]", "values": [{"measurement": "Inhibition of splenocyte proliferation (%, n = 3, Mean ± SD)", "setting": "splenocytes; Table 5, 0.25 μM", "result": "14.2 ± 1.43", "unit": "%"}, {"measurement": "Inhibition of splenocyte proliferation (%, n = 3, Mean ± SD)", "setting": "splenocytes; Table 5, 0.5 μM", "result": "64.3 ± 0.50", "unit": "%"}, {"measurement": "Inhibition of splenocyte proliferation (%, n = 3, Mean ± SD)", "setting": "splenocytes; Table 6, 0.25 μM", "result": "72.5 ± 2.66", "unit": "%"}, {"measurement": "Inhibition of splenocyte proliferation (%, n = 3, Mean ± SD)", "setting": "splenocytes; Table 6, 0.5 μM", "result": "90.8 ± 0.94", "unit": "%"}, {"measurement": "inhibition of splenocyte proliferation (in words)", "setting": "splenocytes", "result": "high inhibitory activities"}, {"measurement": "Inhibition of IL4 secretion (%, n = 2, Mean ± SD)", "setting": "IL4; Table 7, 0.5 μM", "result": "35.9 ± 0.01", "unit": "%"}, {"measurement": "Inhibition of IL4 secretion (%, n = 2, Mean ± SD)", "setting": "IL4; Table 7, 1 μM", "result": "78.2 ± 0.01", "unit": "%"}, {"measurement": "Inhibition of IL4 secretion (%, n = 2, Mean ± SD)", "setting": "IL4; [1]", "result": "81.6 ± 0.02", "unit": "%"}, {"measurement": "Inhibition of IL4 secretion (%, n = 2, Mean ± SD)", "setting": "IL4; [2]", "result": "87.6 ± 0.02", "unit": "%"}, {"measurement": "inhibition of IL4 secretion (in words)", "setting": "IL4", "result": "inhibited the secretion of IL4 and IL5"}, {"measurement": "Inhibition of IL5 secretion (%, n = 2, Mean ± SD)", "setting": "IL5; Table 7, 0.5 μM", "result": "55.8 ± 0.01", "unit": "%"}, {"measurement": "Inhibition of IL5 secretion (%, n = 2, Mean ± SD)", "setting": "IL5; Table 7, 1 μM", "result": "84.4 ± 0.00", "unit": "%"}, {"measurement": "Inhibition of IL5 secretion (%, n = 2, Mean ± SD)", "setting": "IL5; [1]", "result": "41.9 ± 0.04", "unit": "%"}, {"measurement": "Inhibition of IL5 secretion (%, n = 2, Mean ± SD)", "setting": "IL5; [2]", "result": "66.8 ± 0.10", "unit": "%"}, {"measurement": "inhibition of IL5 secretion (in words)", "setting": "IL5", "result": "inhibited the secretion of IL4 and IL5"}]}]}
